Reference: patent publication US6515103B1 (priority 1996, dated 2003)
Several values for one entry are separate records, joined by “and”; a condition that tells them apart may be missing. Equal entries are not always repeated. Where two headings read alike, the source gives them in different places. Marks after values point to notes of the source that are not given here. Where a SMILES comes first, the peptide text is derived from it. [ ]: non-standard residue; d: D form. Gla = N[C@@H](CC(C(=O)O)C(=O)O)C(=O)O

Assays:
[1] = molecular target: T1, NR1-1b/NR2B NMDA subtype (Homo sapiens, UniProt Q05586+Q13224); experiment: cell-based
T1 construct: expressed in transfected cells; host or cells: oocytes

[2] = tested on: NR1-1b/NR2B NMDA subtype; experiment: cell-based
[3] = molecular target: T2, NR1-1b/NR2D combination (Homo sapiens, UniProt O15399+Q05586); assay type: cell-based
T2 construct: expressed in transfected cells; host or cells: oocytes

[4] = molecular target: T3, NR1.1 B subtype (Homo sapiens, UniProt Q05586); assay type: cell-based
T3 construct: expressed in transfected cells; host or cells: oocytes

[5] = molecular target: T4, NR1 A subtype (Homo sapiens, UniProt Q05586); assay type: cell-based
T4 construct: expressed in transfected cells; host or cells: oocytes

[6] = molecular target: AMPA receptor GluR1 (Homo sapiens, UniProt P42261); assay type: cell-based
[7] = molecular target: kainate receptors (GluR6) (Homo sapiens, UniProt Q13002); assay type: cell-based
[8] = tested on: young (<2 weeks old) mice; conditions: mouse, in vivo
[9] = tested on: young (<2 weeks old) mice; conditions: mouse, in vivo; remark: listed apart in the source
[10] = tested on: young (<2 weeks old) mice; conditions: mouse, in vivo; remark: listed apart in the source
[11] = tested on: Frings audiogenic seizure-susceptible mice; conditions: mouse, in vivo
[12] = tested on: Frings audiogenic seizure-susceptible mice; conditions: mouse, in vivo; remark: listed apart in the source
[13] = tested on: CF No. 1 mice; conditions: mouse, in vivo; for anticonvulsant activity in CF No. 1 mice: sc
[14] = tested on: CF #1 Mice; conditions: mouse, in vivo
[15] = molecular target: NMDA receptor; experiment: spermine-stimulated [3H]MK-801 binding assay, inhibition
[16] = molecular target: NMDA receptor
[17] = molecular target: NR1-1b/NR2B NMDA receptor subtype

T1 sequence (Q13224 27-1484, other chains not shown): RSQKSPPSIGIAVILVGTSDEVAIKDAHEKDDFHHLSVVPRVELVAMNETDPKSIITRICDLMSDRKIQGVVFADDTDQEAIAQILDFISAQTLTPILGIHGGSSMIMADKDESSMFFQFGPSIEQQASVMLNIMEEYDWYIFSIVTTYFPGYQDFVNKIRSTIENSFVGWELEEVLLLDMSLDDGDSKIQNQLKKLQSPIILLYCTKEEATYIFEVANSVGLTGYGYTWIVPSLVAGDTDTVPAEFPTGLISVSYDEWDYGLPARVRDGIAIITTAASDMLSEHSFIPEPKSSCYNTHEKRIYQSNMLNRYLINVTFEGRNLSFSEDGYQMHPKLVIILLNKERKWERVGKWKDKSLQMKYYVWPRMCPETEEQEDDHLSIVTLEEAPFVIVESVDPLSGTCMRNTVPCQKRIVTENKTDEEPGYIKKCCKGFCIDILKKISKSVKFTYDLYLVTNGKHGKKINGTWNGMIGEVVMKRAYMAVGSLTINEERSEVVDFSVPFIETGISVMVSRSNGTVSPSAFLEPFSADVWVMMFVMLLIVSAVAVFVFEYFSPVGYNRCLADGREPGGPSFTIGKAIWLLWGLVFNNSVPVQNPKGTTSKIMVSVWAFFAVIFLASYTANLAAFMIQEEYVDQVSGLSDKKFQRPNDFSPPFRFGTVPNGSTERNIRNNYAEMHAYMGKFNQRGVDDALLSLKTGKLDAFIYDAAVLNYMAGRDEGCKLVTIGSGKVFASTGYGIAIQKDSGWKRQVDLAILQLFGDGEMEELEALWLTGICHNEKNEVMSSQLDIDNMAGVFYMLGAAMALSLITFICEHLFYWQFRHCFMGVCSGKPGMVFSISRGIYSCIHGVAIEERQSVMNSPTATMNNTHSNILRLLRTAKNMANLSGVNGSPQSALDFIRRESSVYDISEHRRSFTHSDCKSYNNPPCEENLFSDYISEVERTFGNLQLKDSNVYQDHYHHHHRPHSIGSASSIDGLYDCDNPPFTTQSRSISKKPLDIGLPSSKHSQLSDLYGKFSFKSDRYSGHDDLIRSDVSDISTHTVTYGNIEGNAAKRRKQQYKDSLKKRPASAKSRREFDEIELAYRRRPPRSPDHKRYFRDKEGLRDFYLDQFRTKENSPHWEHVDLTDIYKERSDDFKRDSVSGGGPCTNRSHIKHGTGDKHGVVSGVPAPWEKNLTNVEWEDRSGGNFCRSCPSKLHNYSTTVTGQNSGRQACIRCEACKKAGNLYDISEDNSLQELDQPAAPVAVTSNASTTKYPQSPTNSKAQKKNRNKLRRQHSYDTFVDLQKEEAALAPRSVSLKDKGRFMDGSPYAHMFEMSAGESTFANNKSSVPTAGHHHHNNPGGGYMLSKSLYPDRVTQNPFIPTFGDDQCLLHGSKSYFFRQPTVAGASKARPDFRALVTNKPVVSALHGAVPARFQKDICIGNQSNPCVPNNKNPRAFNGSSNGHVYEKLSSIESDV
T2 sequence (O15399 28-1336, other chains not shown): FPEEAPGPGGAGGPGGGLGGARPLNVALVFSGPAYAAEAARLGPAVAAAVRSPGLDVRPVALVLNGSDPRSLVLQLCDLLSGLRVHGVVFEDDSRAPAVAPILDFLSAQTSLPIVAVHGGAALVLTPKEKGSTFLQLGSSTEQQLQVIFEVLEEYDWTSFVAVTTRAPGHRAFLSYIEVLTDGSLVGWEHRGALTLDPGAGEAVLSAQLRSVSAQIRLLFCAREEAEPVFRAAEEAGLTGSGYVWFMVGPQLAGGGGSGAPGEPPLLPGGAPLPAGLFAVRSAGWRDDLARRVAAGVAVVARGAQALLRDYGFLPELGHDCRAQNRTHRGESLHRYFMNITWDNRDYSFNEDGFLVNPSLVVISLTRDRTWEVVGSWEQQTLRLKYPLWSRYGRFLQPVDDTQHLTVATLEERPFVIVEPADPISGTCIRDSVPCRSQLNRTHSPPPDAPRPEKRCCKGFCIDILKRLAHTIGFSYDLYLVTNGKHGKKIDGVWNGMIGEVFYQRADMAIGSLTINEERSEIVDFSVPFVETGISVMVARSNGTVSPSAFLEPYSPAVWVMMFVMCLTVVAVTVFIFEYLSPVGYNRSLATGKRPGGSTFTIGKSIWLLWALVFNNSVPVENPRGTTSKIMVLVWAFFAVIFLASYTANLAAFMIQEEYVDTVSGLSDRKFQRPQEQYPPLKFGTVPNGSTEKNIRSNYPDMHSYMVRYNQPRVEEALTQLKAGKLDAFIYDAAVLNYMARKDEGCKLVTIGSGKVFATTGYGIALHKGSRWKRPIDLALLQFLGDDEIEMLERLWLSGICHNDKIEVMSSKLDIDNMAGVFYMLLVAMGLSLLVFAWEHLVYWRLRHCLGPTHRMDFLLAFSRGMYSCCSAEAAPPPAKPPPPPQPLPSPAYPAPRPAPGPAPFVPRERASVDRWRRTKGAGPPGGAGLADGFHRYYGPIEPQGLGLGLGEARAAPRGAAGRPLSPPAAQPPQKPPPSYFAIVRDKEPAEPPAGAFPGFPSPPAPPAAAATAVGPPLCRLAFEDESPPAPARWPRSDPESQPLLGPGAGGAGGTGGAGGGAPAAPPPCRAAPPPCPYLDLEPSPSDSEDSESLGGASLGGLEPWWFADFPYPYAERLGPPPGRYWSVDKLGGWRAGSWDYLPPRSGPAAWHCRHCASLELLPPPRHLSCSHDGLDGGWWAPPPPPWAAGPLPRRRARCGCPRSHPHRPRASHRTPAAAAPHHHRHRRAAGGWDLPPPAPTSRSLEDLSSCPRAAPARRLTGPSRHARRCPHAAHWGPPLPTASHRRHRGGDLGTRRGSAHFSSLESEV
Chain of AMPA receptor GluR1 (P42261 19-906): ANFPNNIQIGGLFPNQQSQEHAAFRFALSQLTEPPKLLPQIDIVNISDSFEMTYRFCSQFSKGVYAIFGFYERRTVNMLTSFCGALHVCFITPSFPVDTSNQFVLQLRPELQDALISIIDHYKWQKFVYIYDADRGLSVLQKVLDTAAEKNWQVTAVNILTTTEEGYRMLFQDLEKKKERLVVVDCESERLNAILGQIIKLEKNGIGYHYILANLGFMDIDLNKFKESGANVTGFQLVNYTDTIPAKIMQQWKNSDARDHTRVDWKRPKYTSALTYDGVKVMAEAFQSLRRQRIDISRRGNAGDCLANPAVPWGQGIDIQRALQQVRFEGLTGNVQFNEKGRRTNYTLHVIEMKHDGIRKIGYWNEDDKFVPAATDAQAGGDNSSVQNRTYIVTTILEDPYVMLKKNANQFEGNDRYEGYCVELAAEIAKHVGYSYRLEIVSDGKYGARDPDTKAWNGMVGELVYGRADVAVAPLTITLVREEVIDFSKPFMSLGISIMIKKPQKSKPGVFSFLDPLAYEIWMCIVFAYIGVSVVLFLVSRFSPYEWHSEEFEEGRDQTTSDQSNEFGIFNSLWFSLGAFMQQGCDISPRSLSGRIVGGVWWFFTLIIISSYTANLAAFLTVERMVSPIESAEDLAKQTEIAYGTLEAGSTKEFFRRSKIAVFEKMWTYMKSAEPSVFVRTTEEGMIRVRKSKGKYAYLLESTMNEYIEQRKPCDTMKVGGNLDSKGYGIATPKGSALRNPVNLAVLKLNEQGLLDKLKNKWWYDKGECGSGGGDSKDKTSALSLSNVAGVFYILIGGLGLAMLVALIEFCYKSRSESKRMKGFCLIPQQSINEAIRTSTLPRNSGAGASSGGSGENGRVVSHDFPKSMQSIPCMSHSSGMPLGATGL
Chain of kainate receptors (GluR6) (Q13002 32-908, species assumed): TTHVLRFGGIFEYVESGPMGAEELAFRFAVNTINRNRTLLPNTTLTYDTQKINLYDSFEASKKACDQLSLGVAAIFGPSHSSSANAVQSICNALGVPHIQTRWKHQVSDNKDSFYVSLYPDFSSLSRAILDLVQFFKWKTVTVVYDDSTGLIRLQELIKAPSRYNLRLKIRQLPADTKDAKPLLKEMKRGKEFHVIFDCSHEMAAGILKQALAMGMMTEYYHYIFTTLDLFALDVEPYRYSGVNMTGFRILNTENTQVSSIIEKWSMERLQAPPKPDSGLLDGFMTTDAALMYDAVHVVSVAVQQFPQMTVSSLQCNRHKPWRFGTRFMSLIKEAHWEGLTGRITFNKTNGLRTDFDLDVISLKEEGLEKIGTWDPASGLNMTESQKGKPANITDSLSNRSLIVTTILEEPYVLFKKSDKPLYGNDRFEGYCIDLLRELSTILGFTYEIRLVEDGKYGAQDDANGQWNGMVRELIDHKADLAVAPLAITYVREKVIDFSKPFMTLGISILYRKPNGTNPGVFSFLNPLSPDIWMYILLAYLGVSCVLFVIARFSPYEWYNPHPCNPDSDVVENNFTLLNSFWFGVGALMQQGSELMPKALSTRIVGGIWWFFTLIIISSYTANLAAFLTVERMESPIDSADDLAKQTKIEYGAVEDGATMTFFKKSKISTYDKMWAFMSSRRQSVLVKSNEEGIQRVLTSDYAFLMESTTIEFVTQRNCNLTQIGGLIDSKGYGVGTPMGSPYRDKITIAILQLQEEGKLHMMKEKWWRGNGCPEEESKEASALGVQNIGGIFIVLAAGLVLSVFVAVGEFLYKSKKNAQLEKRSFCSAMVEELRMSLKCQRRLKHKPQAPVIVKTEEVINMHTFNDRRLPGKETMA

CC[C@H](C)[C@H](NC(=O)[C@H](CC(N)=O)NC(=O)[C@H](CC(C(=O)O)C(=O)O)NC(=O)[C@H](CCCNC(=N)N)NC(=O)[C@H](C)NC(=O)[C@H](CC(C)C)NC(=O)[C@H](CC(C(=O)O)C(=O)O)NC(=O)[C@H](C)NC(=O)[C@H](C)NC(=O)[C@H](CCSC)NC(=O)[C@H](CCCCN)NC(=O)[C@H](C)NC(=O)[C@@H](NC(=O)[C@H](CC(C(=O)O)C(=O)O)NC(=O)[C@H](CC(C(=O)O)C(=O)O)NC(=O)[C@H](CCC(=O)O)NC(=O)CN)C(C)C)C(=O)N[C@@H](C)C(=O)N[C@@H](CCCCN)C(=O)NCC(=O)N[C@H]1CSSC[C@@H](C(=O)N[C@@H](Cc2ccc(O)cc2)C(=O)N2CCC[C@H]2C(=O)O)NC(=O)[C@H](CC(N)=O)NC(=O)[C@H](C(C)C)NC(=O)[C@H](CCCCN)NC1=O [Con R, Conantokin R]
inhibition of heteromeric NR1:NR2B complexes with B splice variant of NR1 [1]: inhibited
inhibition at 3 µM ([1]; read-out: inhibition of the current produced by the NR1-1b/NR2B NMDA subtype in response to glutamate and glycine): ~95%
affinity for NR1-1b/NR2B relative to NR1-1b/NR2D [2]: greater than 50 fold
selectivity for the B splice variant of NR1 in heteromeric complexes [2]: selective for the B splice variant
effect on NR1-1b/NR2D combination [3]: not affected
inhibition of homomeric NR1 complex, NR1.1 B subtype [4]: only inhibited the NR1.1 B subtype
inhibition of homomeric NR1 complex, A subtype [5]: no effect
inhibition of AMPA receptor GluR1 [6]: not to inhibit
inhibition of kainate receptors (GluR6) [7]: not to inhibit
Catalepsy Test, positive/tested [8]: 2/3
Sleepy Test, positive/tested [9]: 2/3
Righting Reflex, positive/tested [10]: 2/3
# Protected/# Tested [11]: 4/4
ED50 [11]: 0.013^c nmols and 0.013 nmols
ED50 (pmol, i.c.v.) [11]: 9 pmol and 9.00 pmol
P.I. [11]: 17
Protective Index, PI (TD50/ED50) [11]: 18
antiseizure activity relative to valproic acid [11]: greater than 400,000 fold
protective index relative to valproic acid [11]: at least eight times better
TD50 [12]: 164 pmol
MES ED50 [13]: 0.083 nmols
P.I. [13]: 3.6
anticonvulsant activity in CF No. 1 mice [13]: anticonvulsant activity
TD50 [14]: ˜0.300 nmols

A^7 Con G (peptide)
IC50 [15]: 45 nM

Conantokin Oc [Con Oc]
Catalepsy Test, positive/tested [8]: 0/3
Sleepy Test, positive/tested [9]: 2/3 and 0/3
Righting Reflex, positive/tested [10]: 0/3

Conatokin L [Con L]
Catalepsy Test, positive/tested [8]: 4/4 and 3/4
Sleepy Test, positive/tested [9]: 4/4
Righting Reflex, positive/tested [10]: 2/4 and 3/4
anticonvulsant activity in CF No. 1 mice [13]: anticonvulsant activity

Conantokin G (peptide)
IC50 [16]: 195 nM
IC50 [15]: 195 nM

Conantokin Qu [Con Qu]
anticonvulsant activity in CF No. 1 mice [13]: anticonvulsant activity

Conantokin Gm [Con Gm]
anticonvulsant activity in CF No. 1 mice [13]: anticonvulsant activity

Conantokin S1 [Con S1]
anticonvulsant activity in CF No. 1 mice [13]: anticonvulsant activity

CSCC[C@H](NC(=O)[C@H](CCCCN)NC(=O)[C@H](CCC(N)=O)NC(=O)[C@H](Cc1ccc(O)cc1)NC(=O)[C@H](CC(C(=O)O)C(=O)O)NC(=O)[C@H](CC(C(=O)O)C(=O)O)NC(=O)[C@H](CCC(=O)O)NC(=O)CN)C(=O)N[C@@H](CC(C)C)C(=O)N[C@@H](CC(C(=O)O)C(=O)O)C(=O)N[C@@H](CC(N)=O)C(=O)N[C@@H](CC(C)C)C(=O)N[C@@H](CCCNC(=N)N)C(=O)N[C@@H](CC(C(=O)O)C(=O)O)C(=O)N[C@@H](C)C(=O)N[C@@H](CCC(=O)O)C(=O)N[C@H](C(=O)N[C@@H](CCCCN)C(=O)N[C@@H](CCCCN)C(=O)N[C@@H](CC(N)=O)C(=O)N[C@@H](C)C(N)=O)C(C)C [Con T, Conantokin T] (H-GE[Gla][Gla]YQKML[Gla]NLR[Gla]AEVKKNA-NH2)
P.I. [11]: 13
TD50 [12]: 0.228 nmols
behavioral toxicity, rotorod test ([12]; iv, 12 mg/kg): No animals exhibited behavioral toxicity

Conantokin R (peptide)
Ki [17]: 140 nM
